{
  "source": "patent US6613762B2",
  "about": "“Gambogic acid, analogs and derivatives as activators of caspases and inducers of apoptosis” (Cytovia, Inc., priority 1999, dated 2003)",
  "key": {"[1]": {"test_system": "caspase cascade, human prostate cancer cell line PC-3", "experiment": "Caspase cascade activation assay (Example 90), PC-3", "assay_type": "cell-based", "conditions": "for PC-3 Ratio (caspase activity): ratio of net RFU of test compound to control, 24 h incubation, 0.16 to 10 μM", "protocol": "(§1) Human breast cancer cell lines T-47D and ZR-75-1, human prostate cancer cell line PC-3, human leukemia cancer cell line HL-60 and human non-transformed fibroblast cell line MRC-5 cells were grown according to media component mixtures designated by The American Type Culture Collection+10% FCS (Life Technologies, Inc.), in a 5% CO2-95% humidity incubator at 37° C. T-47D, ZR-75-1 and PC-3 cells were maintained at a cell density between 30 and 80% confluency and for HL-60 at a cell density of 0.1 to 0.6×10^6 cells/m. Cells were harvested at 600× g and resuspended at 0.65×10^6 cells/ml into appropriate media +10% FCS. […] The samples were mixed by agitation and incubated at room temperature.\n(§2) The EC50 (nM) was determined by a sigmoidal dose-response calculation (Prism 2.0, GraphPad Software Inc.)."}, "[2]": {"test_system": "caspase cascade, human leukemia cancer cell line HL-60", "experiment": "Caspase cascade activation assay (Example 90), HL-60", "assay_type": "cell-based", "conditions": "ratio of net RFU of test compound to control; 24 h incubation, 0.16 to 10 μM", "protocol": "as §1, §2"}, "[3]": {"test_system": "caspase cascade, human non-transformed fibroblast cell line MRC-5", "experiment": "Caspase cascade activation assay (Example 90), MRC-5", "assay_type": "cell-based", "conditions": "ratio of net RFU of test compound to control; 24 h incubation, 0.16 to 10 μM", "protocol": "as §1, §2"}, "[4]": {"test_system": "caspase cascade", "experiment": "Caspase cascade activation assay (Example 90), MRC-5", "assay_type": "cell-based, human", "conditions": "human", "protocol": "as §1, §2"}, "[5]": {"test_system": "caspase cascade, human breast cancer cell line ZR-75-1", "experiment": "Caspase cascade activation assay (Example 90), ZR-75-1", "assay_type": "cell-based", "conditions": "ratio of net RFU of test compound to control; 24 h incubation, 0.16 to 10 μM", "protocol": "as §1, §2"}, "[6]": {"test_system": "caspase cascade, human breast cancer cell line T-47D", "experiment": "Caspase cascade activation assay (Example 90), T-47D", "assay_type": "cell-based", "conditions": "ratio of net RFU of test compound to control; 24 h incubation, 0.16 to 10 μM", "protocol": "as §1, §2"}, "[7]": {"experiment": "Inhibition of cell proliferation (GI50) and cell death (LC50), MRC-5", "assay_type": "cell-based", "conditions": "human; MRC-5, 48 h; read-out: LC50 (dose for 50% cell death)", "protocol": "T47D, ZR-75-1, PC-3, human prostate cancer cell line DU-145, human non-small cell lung cancer cell line A-549, human small cell lung cancer cell line SHP-77, HL-60 and MRC-5 cells were grown and harvested as in Example 90. […] The samples were mixed by agitation and incubated at 37° C. for 2-4 h in a 5% CO2-95% humidity incubator. […] This determines the possible background absorbance of the test compounds. No absorbance for gambogic acid or its analogs or derivatives was found at 490 nm. After the 2-4 h incubation, the samples were read for absorbance as above (ATest).\nBaseline for GI50 (dose for 50% inhibition of cell proliferation) and LC50 (dose for 50% cell death) of initial cell numbers was determined by adding an aliquot of 90 μl of cells or 90 μl of media, respectively, to wells of a 96-well microtiter plate containing 10 μl of a 10% DMSO in RPMI-1640 media solution. […] The samples were mixed by agitation and incubated at 37° C. for 2-4 h in a 5% CO2-95% humidity incubator. Absorbance was read as above, (AT=0) defining absorbance for initial cell number used as baseline in GI50 determinations and (Amin) defining absorbance for media alone used as baseline in LC50 determinations.\nGI50 (dose for 50% inhibition of cell proliferation)\nLC50 (dose for 50% cell death)\n50=100×[(ATest−Amin)/(AT=0−Amin)]"}, "[8]": {"test_system": "poly(ADP)ribose polymerase (PARP) cleavage, T47D cells", "experiment": "PARP cleavage western blot, T47D cells", "assay_type": "cell-based, human", "conditions": "1 μM staurosporine, 2 h and 4 h (FIG. 5C)", "protocol": "(§3) Cleavage of the enzyme poly(ADP)ribose polymerase (PARP) by caspase-3 and related proteases is considered to be one of the molecular hallmarks of caspase-mediated apoptosis. Therefore, the ability of gambogic acid to induce PARP cleavage in four different human tumor cell lines (Jurkat cells, HL-60 cells, T47D cells and PC3 cells) was determined.\n(§4) Cells were cultured in complete growth medium containing 10% FBS and treated with gambogic acid at concentrations of 2.5 μM or 5 μM for 2 to 4 h. Control cultures were treated with a drug vehicle (DMSO), or the well-characterized apoptosis inducer, staurosporine. At the end of the apoptosis induction period, the cells were harvested, washed once with PBS, quick-frozen on dry ice, and stored at −80° C. The cells were then lysed in a standard immunoblotting lysis buffer and samples of the lysates were electrophoresed on 4% to 20% gradient polyacrylamide gels. The proteins in the gels were then transferred to PVDF membranes and probed with a commercially-available rabbit polyclonal antibody to PARP."}, "[9]": {"test_system": "poly(ADP)ribose polymerase (PARP) cleavage, PC3 cells", "experiment": "PARP cleavage western blot, PC3 cells", "assay_type": "cell-based, human", "conditions": "1 μM staurosporine, 2 h and 4 h (FIG. 5D)", "protocol": "as §3, §4"}},
  "note": "Where two headings read alike, the source gives them in different places.",
  "data": [
    {"compound": "COC(=O)/C(C)=C\\CC12OC(C)(C)C3CC(C=C4C(=O)c5c(O)c6c(c(CC=C(C)C)c5OC431)OC(C)(CCC=C(C)C)C=C6)C2=O", "note": "(stereo not drawn) [Example 4, Methyl Gambogate]", "values": [
      {"measurement": "EC50", "setting": "[1]; Homo sapiens, 24 h, read-out: PC-3 EC50 (caspase activation potency)", "result": 1330, "unit": "nM"},
      {"measurement": "PC-3 Ratio (caspase activity)", "setting": "[1]", "result": 3.9},
      {"measurement": "HL-60 Ratio (caspase activity)", "setting": "[2]", "result": 7.7},
      {"measurement": "MRC-5 Ratio (caspase activity)", "setting": "[3]", "result": 27.8},
      {"measurement": "EC50 at 24 h", "setting": "[4]; 24 h incubation, sigmoidal dose-response, read-out: MRC-5 EC50 (caspase activation potency)", "result": 501, "unit": "nM"},
      {"measurement": "ZR-75-1 Ratio (caspase activity)", "setting": "[5]", "result": 14.9},
      {"measurement": "T-47D Ratio (caspase activity)", "setting": "[6]", "result": 16.8},
      {"measurement": "CC50 at 48 h", "setting": "[7]", "result": 500, "unit": "nM"}
    ]},
    {"compound": "COc1c2c(c(CC=C(C)C)c3c1C(=O)C1=CC4CC5C(C)(C)OC(C/C=C(/C)C(=O)N6CCCCC6)(C4=O)C15O3)OC(C)(CCC=C(C)C)C=C2", "note": "(stereo not drawn) [Example 7, 6-Methoxy-gambogyl Piperidine]", "values": [
      {"measurement": "PC-3 Ratio (caspase activity)", "setting": "[1]", "result": 2.3},
      {"measurement": "MRC-5 Ratio (caspase activity)", "setting": "[3]", "result": 9.4},
      {"measurement": "EC50 at 24 h", "setting": "[4]", "result": 1200, "unit": "nM"},
      {"measurement": "ZR-75-1 Ratio (caspase activity)", "setting": "[5]", "result": 13.4},
      {"measurement": "T-47D Ratio (caspase activity)", "setting": "[6]", "result": 14.4}
    ]},
    {"compound": "CN[C@@H]1C[C@H]2O[C@@](C)([C@@H]1OC)n1c3ccccc3c3c4c(c5c6ccccc6n2c5c31)C(=O)NC4", "note": "[staurosporine, reference compound]", "values": [
      {"measurement": "PARP cleavage", "setting": "[8]", "result": "no cleavage of PARP"},
      {"measurement": "PARP cleavage", "setting": "[9]", "result": "no cleavage of PARP"}
    ]}
  ]
}
